# System: genotype A, "Long" strain RSV
# Experiment: RSV-A assay (CPE protection in Hep-2 cells, ATPlite readout)
# Format: cell-based, Human respiratory syncytial virus (HRSV)
# Settings: human respiratory syncytial virus, RSV-A Long strain, MOI 0.1, CPE protection, read-out: Human RSV-A (“Long”) EC50
# Outline: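 Hep-2 cells (8,000/well) were treated with 2-fold serial compound dilutions in duplicate and infected with RSV at MOI 0.1. After 5 days, protection from cytopathic effect was measured as cell viability by ATPlite luminescence, and EC50 values were derived.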
row,EC50,SMILES
1,< 200 nM,COc1cc(C(=O)NC[C@](O)(c2cc3c(c(-c4ccc(Cl)cc4Cl)n2)OC[C@]3(C)C(N)=O)C(F)(F)F)cc2cn(C3CC3)nc12 [Example 1254]
2,< 200 nM,COc1cc(C(=O)NC[C@](O)(c2cc3c(c(-c4ccc(F)c(Cl)c4F)n2)OC[C@]3(C)C(N)=O)C2CC2)cc2cc(Br)c(C)nc12 [Example 1129]
3,< 200 nM,COc1cc(C(=O)NC[C@](O)(c2cc3c(c(-c4cc(Cl)cc(Cl)c4)n2)OC[C@]3(C)C(N)=O)C2CC2)cc2cn(C3CC3)nc12 [Example 1281]
4,< 200 nM,Cc1cc2cc(C(=O)NC[C@](O)(c3cc4c(c(-c5ccc6c(c5)OC(F)(F)O6)n3)OC[C@]4(C)C(N)=O)C3CC3)cc(OC3CC3)c2nc1Cl [Example 1079]
5,< 200 nM,COc1cc(C(=O)NC[C@](O)(c2cc3c(c(-c4ccc(Cl)c(Cl)c4F)n2)OC[C@]3(C)C(N)=O)C(F)(F)F)cc2cn(C3CC3)nc12 [Example 1257]
6,> 200 nM,COc1cc(C(=O)NCC(O)(c2cc3c(c(Br)n2)OC[C@]3(C)C(N)=O)C(F)(F)F)cc2cn(C3CC3)nc12 (stereo partly drawn) [Example 890]
7,> 200 nM,COc1cc(C(=O)NC[C@](O)(c2cc3c(c(-c4ccc(F)cc4)n2)OC[C@]3(C)C(N)=O)C(F)(F)F)cn2nc(C3CC3)cc12 [Example 879]
8,< 200 nM,[2H]C([2H])([2H])c1nc2c(OC)cc(C(=O)NC[C@](O)(c3cc4c(c(-c5cc(F)c(F)cc5F)n3)OC[C@]4(C)C(N)=O)C3CC3)cc2cc1Cl [Example 1288]

# Same assay, conditions: human respiratory syncytial virus, genotype A “Long” strain RSV, MOI 0.1, CPE protection, read-out: Human RSV-A (“Long”)
row,SMILES,EC50
1,C[C@]1(C(N)=O)COc2c1cc([C@@](O)(CNC(=O)c1cc(F)c3[nH]ccc3c1)C(F)(F)F)nc2-c1ccc(F)cc1 [Example 197],< 200 nM
2,Cc1cnc2c(Nc3ccc(C(C)(C)C)nn3)cc(C(=O)NC[C@](O)(c3cc4c(c(-c5ccc(F)cc5)n3)OC[C@]4(C)C(N)=O)C(F)(F)F)cc2c1 [Example 118],< 200 nM
3,C[C@@H](O)COc1ccc(C(=O)NC[C@](O)(c2cc3c(c(-c4ccc(F)cc4)n2)OC[C@@]3(C(N)=O)C2CC2)C(F)(F)F)cc1OC1CC1 [Example 278],< 200 nM
4,Cc1cnc2c(Nc3ccc(F)nn3)cc(C(=O)NC[C@](O)(c3cc4c(c(-c5ccc(F)cc5)n3)OC[C@]4(C)C(N)=O)C(F)(F)F)cc2c1 [Example 119],< 200 nM
5,CC[C@@]1(C(N)=O)COc2c1cc([C@@](O)(CNC(=O)c1cc(OC3CC3)c3ncccc3c1)C(F)(F)F)nc2-c1ccc(F)cc1 [Example 244],> 200 nM
6,COc1ccccc1-c1cc(C(=O)NC[C@](O)(c2cc3c(c(-c4ccc(F)cc4)n2)OC[C@]3(C)C(N)=O)C(F)(F)F)n[nH]1 [Example 207],> 200 nM
7,CC[C@]1(C(N)=O)COc2c1cc([C@@](O)(CNC(=O)c1ccc(OC[C@@H](C)O)c(OC3CC3)c1)C(F)(F)F)nc2-c1ccc(F)cc1 [Example 242],< 200 nM
8,C[C@]1(C(N)=O)COc2c1cc([C@@](O)(CNC(=O)c1cc(F)c3[nH]ncc3c1)C(F)(F)F)nc2-c1ccc(F)cc1 [Example 104],< 200 nM
9,Cc1cnc2c(Nc3ccc(C(F)(F)F)nn3)cc(C(=O)NC[C@](O)(c3cc4c(c(-c5ccc(F)cc5)n3)OC[C@]4(C)C(N)=O)C(F)(F)F)cc2c1 [Example 116],< 200 nM
10,CC[C@@]1(C(N)=O)COc2c1cc([C@@](O)(CNC(=O)c1cc(OC)c3nc(C4CC4)cn3c1)C(F)(F)F)nc2-c1ccc(F)cc1 [Example 245],< 200 nM
11,COc1cc(C(=O)NC[C@](O)(c2cc3c(c(-c4ccc(F)cc4)n2)OC[C@@]3(CF)C(N)=O)C(F)(F)F)cc2cc(C(F)(F)F)cnc12 [Example 286],< 200 nM
12,COc1cc(C(=O)NC[C@](O)(c2cc3c(c(-c4ccc(F)cc4)n2)OC[C@]3(C)C(N)=O)C(F)(F)F)cc2cc3c(nc12)CCC3 [Example 71],< 200 nM
13,C[C@]1(C(N)=O)COc2c1cc([C@@](O)(CNC(=O)c1ccc3cc(C4CC4)cn3c1)C(F)(F)F)nc2-c1ccc(F)cc1 [Example 185],> 200 nM
14,Cc1ccc2cc(C(=O)NC[C@](O)(c3cc4c(c(-c5ccc(F)cc5)n3)OC[C@]4(C)C(N)=O)C(F)(F)F)cc(N3CCCC3=O)c2n1 [Example 38],> 200 nM
15,C[C@]1(C(N)=O)COc2c1cc([C@@](O)(CNC(=O)c1cc(F)c3cnn(C4CC4)c3c1)C(F)(F)F)nc2-c1ccc(F)cc1 [Example 146],> 200 nM
16,C[C@]1(C(N)=O)COc2c1cc([C@@](O)(CNC(=O)c1cc3cn[nH]c3cc1C1CC1)C(F)(F)F)nc2-c1ccc(F)cc1 [Example 126],> 200 nM
17,C[C@]1(C(N)=O)COc2c1cc([C@@](O)(CNC(=O)c1ccc3nncn3c1)C(F)(F)F)nc2-c1ccc(F)cc1 [Example 109],> 200 nM
18,C[C@]1(C(N)=O)COc2c1cc([C@@](O)(CNC(=O)c1cc(F)c3nc(C(N)=O)cn3c1)C(F)(F)F)nc2-c1ccc(F)cc1 [Example 79],> 200 nM
19,COc1cc(C(=O)NC[C@](O)(c2cc3c(c(-c4ccc(F)cc4)n2)OC[C@]3(C)C(N)=O)C(F)(F)F)ccc1OC[C@@H](O)C(F)(F)F [Example 131],< 200 nM

# Results, then the compound that gave them:
row,EC50,SMILES
1,< 200 nM,C[C@]1(C(N)=O)COc2c1cc([C@@](O)(CNC(=O)c1ccnc3[nH]ccc13)C(F)(F)F)nc2-c1ccc(F)cc1 [Example 369]
2,> 200 nM,C[C@]1(C(N)=O)COc2c1cc([C@@](O)(CNC(=O)c1ncc[nH]1)C(F)(F)F)nc2-c1ccc(F)cc1 [Example 426]
3,< 200 nM,CC[C@@]1(C(N)=O)COc2c1cc([C@@](O)(CNC(=O)c1cc(OC)c3nn(C4CC4)cc3c1)C(F)(F)F)nc2-c1ccc(F)cc1 [Example 463]
4,> 200 nM,Cc1ccc2nc(C(=O)NC[C@](O)(c3cc4c(c(-c5ccc(F)cc5)n3)OC[C@]4(C)C(N)=O)C(F)(F)F)cn2c1 [Example 398]
5,> 200 nM,C[C@]1(C(N)=O)COc2c1cc([C@@](O)(CNC(=O)c1cc3[nH]ccc3cc1F)C(F)(F)F)nc2-c1ccc(F)cc1 [Example 387]
6,< 200 nM,COc1cc(C(=O)NC[C@](O)(c2cc3c(c(-c4ccc(F)cc4)n2)OC[C@]3(CF)C(N)=O)C(F)(F)F)ccc1OC1CC1 [Example 299]
7,> 200 nM,C[C@]1(C(N)=O)COc2c1cc([C@@](O)(CNC(=O)c1ccoc1)C(F)(F)F)nc2-c1ccc(F)cc1 [Example 363]
8,< 200 nM,COc1cc(C(=O)NC[C@](O)(c2cc3c(c(-c4ccc(F)cc4)n2)OC[C@]3(C)C(N)=O)C2CC2)cc2cn(C(F)F)nc12 [Example 303]
9,> 200 nM,Cc1ccc2cc(C(=O)NC[C@](O)(c3cc4c(c(-c5ccc(F)cc5)n3)OC[C@]4(C)C(N)=O)C(F)(F)F)[nH]c2c1 [Example 385]
10,> 200 nM,Cc1nn(-c2ccccc2)c(C)c1C(=O)NC[C@](O)(c1cc2c(c(-c3ccc(F)cc3)n1)OC[C@]2(C)C(N)=O)C(F)(F)F [Example 453]
11,> 200 nM,Cn1ccc(C(=O)NC[C@](O)(c2cc3c(c(-c4ccc(F)cc4)n2)OC[C@]3(C)C(N)=O)C(F)(F)F)n1 [Example 411]
12,> 200 nM,COc1cc(C(=O)NC[C@](O)(c2cc3c(c(-c4ccc(F)cc4)n2)OC[C@@]3(CF)C(N)=O)C(F)(F)F)ccc1OC1CC1 [Example 298]
13,> 200 nM,Cc1nc(-c2ccccc2F)sc1C(=O)NC[C@](O)(c1cc2c(c(-c3ccc(F)cc3)n1)OC[C@]2(C)C(N)=O)C(F)(F)F [Example 485]
14,< 200 nM,Cc1nc(C2CC2)sc1C(=O)NC[C@](O)(c1cc2c(c(-c3ccc(F)cc3)n1)OC[C@]2(C)C(N)=O)C(F)(F)F [Example 462]
15,> 200 nM,COc1cccc(C(=O)NC[C@](O)(c2cc3c(c(-c4ccc(F)cc4)n2)OC[C@]3(C)C(N)=O)C(F)(F)F)c1F [Example 427]
16,< 200 nM,COc1cc(C(=O)NC[C@](O)(c2cc3c(c(-c4ccc(F)cc4Cl)n2)OC[C@]3(C)C(N)=O)C2CC2)cc2cn(C3CC3)nc12 [Example 535]
17,> 200 nM,C[C@]1(C(N)=O)COc2c1cc([C@@](O)(CNC(=O)c1ccn3nccc3n1)C(F)(F)F)nc2-c1ccc(F)cc1 [Example 433]
18,> 200 nM,C[C@]1(C(N)=O)COc2c1cc([C@@](O)(CNC(=O)c1cn(-c3ccccc3)nc1C(F)(F)F)C(F)(F)F)nc2-c1ccc(F)cc1 [Example 457]
